The term EC50 denotes the concentration giving half of the maximal effect.

For test [1], the species on record is Rattus norvegicus. In words: Percent intrinsic activity was measured in rat aorta. It counts as functional.
For test [2], the species on record is Rattus norvegicus. In words: Negative logarithm of the molar concentration of compound required to relax rat aorta precontracted with 30 mM KCl by 50%. In kind it is functional.

In the test listed under Rattus norvegicus [1], `CC(N/C(=N\C#N)Nc1ccncc1)C(C)(C)C` (stereo not given) [PINACIDIL ANHYDROUS] came in with an IA of 91.9%. Besides, the response in the test filed under Rattus norvegicus [2] was half-maximal at 724 nM (EC50).

For `CC1(C)Oc2ccc(C#N)cc2[C@@H](N2CCCC2=O)[C@@H]1O` [CROMAKALIM], in the test filed under Rattus norvegicus [1], the IA worked out at 74.7%. In the case of `C/N=C(/NC#N)C1=CC(C)(C)Oc2ccc(C#N)cc21`, the IA in the test listed under Rattus norvegicus [1] came out at 73%. This compound gave an EC50 in the test filed under Rattus norvegicus [2] of 339 nM. On the same counts, the results for `CC(C)(C)/N=C(/NC#N)Nc1cccnc1` are 88% and 91.2 nM.

As for `CNC(=O)C1=CC(C)(C)Oc2ccc(C#N)cc21`, the IA in the test listed under Rattus norvegicus [1] was found to be 66.6%. This compound had an EC50 in the test filed under Rattus norvegicus [2] of 263 nM. Consider `C/N=C(/S)C1=CC(C)(C)Oc2ccc(C#N)cc21`, for which the IA in the test listed under Rattus norvegicus [1] is 89%.

The record behind these values is ChEMBL document CHEMBL1127213, “Design of potent K+ channel openers by pharmacophore model” (Bioorg Med Chem Lett, 1993).
